Each compound was assayed against EGFR T790M/L858R Ba/F3 cell line (Homo sapiens, UniProt P00533, T790M/L858R, cells depend on it) (assay: Ba/F3 cell proliferation model). Conditions: combined with cetuximab (% cetuximab, 1.0 μM drug concentration with 1.0 μg/mL cetuximab).
Assay type: cell-based, murine
In short: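 Murine Ba/F3 cells made IL-3-independent by retroviral EGFR L858R/T790M, selected in puromycin (2 μg/ml) and kept in RPMI 1640 with 10% FBS. Cells were exposed to serially diluted compound for 72 h, with growth read by MTS assay in six wells per point and ≥3 repeats. Sigmoidal dose-response non-linear regression gave the values.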

Chain of EGFR T790M/L858R Ba/F3 cell line (P00533 whole entry T790M/L858R): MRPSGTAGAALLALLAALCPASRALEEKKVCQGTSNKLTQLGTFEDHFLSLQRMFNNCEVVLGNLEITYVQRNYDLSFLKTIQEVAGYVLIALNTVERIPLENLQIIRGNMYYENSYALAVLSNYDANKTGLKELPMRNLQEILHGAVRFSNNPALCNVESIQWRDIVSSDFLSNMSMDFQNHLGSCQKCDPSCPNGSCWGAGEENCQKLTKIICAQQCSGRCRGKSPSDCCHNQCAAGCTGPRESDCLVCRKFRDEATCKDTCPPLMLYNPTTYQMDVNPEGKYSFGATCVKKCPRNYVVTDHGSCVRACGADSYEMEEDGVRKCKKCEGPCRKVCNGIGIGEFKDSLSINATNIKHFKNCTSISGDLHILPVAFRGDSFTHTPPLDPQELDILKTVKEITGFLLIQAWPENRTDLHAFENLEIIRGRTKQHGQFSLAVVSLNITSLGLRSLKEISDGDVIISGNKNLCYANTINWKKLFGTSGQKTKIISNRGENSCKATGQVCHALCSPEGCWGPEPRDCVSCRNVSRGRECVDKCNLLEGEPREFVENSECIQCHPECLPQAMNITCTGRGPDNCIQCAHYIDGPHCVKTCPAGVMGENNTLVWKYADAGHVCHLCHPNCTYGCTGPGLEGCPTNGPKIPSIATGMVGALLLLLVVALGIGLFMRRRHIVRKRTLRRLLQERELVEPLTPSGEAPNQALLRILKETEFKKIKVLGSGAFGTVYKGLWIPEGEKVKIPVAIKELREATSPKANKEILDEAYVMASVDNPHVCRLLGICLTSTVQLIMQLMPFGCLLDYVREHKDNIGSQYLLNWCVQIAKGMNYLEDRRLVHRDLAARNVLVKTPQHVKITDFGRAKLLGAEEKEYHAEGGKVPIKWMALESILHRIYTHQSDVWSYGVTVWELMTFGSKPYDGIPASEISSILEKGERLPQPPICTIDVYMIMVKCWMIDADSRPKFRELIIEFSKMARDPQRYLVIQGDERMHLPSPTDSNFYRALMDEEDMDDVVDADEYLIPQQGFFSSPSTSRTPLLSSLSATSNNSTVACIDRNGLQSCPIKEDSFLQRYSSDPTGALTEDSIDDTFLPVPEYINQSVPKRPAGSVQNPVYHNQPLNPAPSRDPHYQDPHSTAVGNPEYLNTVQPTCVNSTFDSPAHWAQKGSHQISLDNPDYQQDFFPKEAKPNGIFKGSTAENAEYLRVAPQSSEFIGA

Compound	Activity (% inhibition)
CN(C)CCCCNC(=O)c1cccc(-c2ccc3c(c2)C(=O)N([C@@H](C(=O)Nc2nccs2)c2ccccc2)C3)c1 [Compound I-89, (R)-N-(4-(dimethylamino)butyl)-(3-oxo-2-(2-oxo-1-phenyl-2-(thiazol-2-ylamino)ethyl)isoindolin-5-yl)benzamide]	B (a % inhibition of between about 50% to about 75%)
O=C(NCCN1CCOCC1)c1cccc(-c2ccc3c(c2)C(=O)N([C@@H](C(=O)Nc2nccs2)c2ccccc2)C3)c1 [Compound I-90, (R)-N-(2-morpholinoethyl)-3-(3-oxo-2-(2-oxo-1-phenyl-2-(thiazol-2-ylamino)ethyl)isoindolin-5-yl)benzamide]	C (a % inhibition of between about 25% to about 50%)
O=C(NCCCN1CCOCC1)c1cccc(-c2ccc3c(c2)C(=O)N([C@@H](C(=O)Nc2nccs2)c2ccccc2)C3)c1 [Compound I-91, (R)-N-(3-morpholinopropyl)-3-(3-oxo-2-(2-oxo-1-phenyl-2-(thiazol-2-ylamino)ethyl)isoindolin-5-yl)benzamide]	D (a % inhibition of between about 0% to about 25%)
O=C(Nc1nccs1)[C@@H](c1ccccc1)N1Cc2ccc(-c3cccc(C(=O)N4CCOCC4)c3)cc2C1=O [Compound I-92, (R)-2-(6-(3-(morpholine-4-carbonyl)phenyl)-1-oxoisoindolin-2-yl)-2-phenyl-N-(thiazol-2-yl)acetamide]	C (a % inhibition of between about 25% to about 50%)
O=C(Nc1nccs1)[C@@H](c1ccccc1)N1Cc2cc(Nc3ccccc3)ccc2C1=O [Compound I-93, (R)-2-(1-oxo-5-(phenylamino)isoindolin-2-yl)-2-phenyl-N-(thiazol-2-yl)acetamide]	A (a % inhibition of about 75%)
O=C(Nc1nccs1)[C@@H](c1ccccc1)N1Cc2cc(Nc3ccc(N4CCOCC4)cc3)ccc2C1=O [Compound I-94, (R)-2-(5-((4-morpholinophenyl)amino)-1-oxoisoindolin-2-yl)-2-phenyl-(thiazol-2-yl)acetamide]	C (a % inhibition of between about 25% to about 50%)
O=C(Nc1nccs1)[C@@H](c1ccccc1)N1Cc2cc(Nc3cccc(CN4CCCC4)c3)ccc2C1=O [Compound I-95, (R)-2-(1-oxo-5-((3-(pyrrolidin-1-ylmethyl)phenyl)amino)isoindolin-2-yl)-2-phenyl-N-(thiazol-2-yl)acetamide]	B (a % inhibition of between about 50% to about 75%)
O=C(Nc1nccs1)[C@@H](c1ccccc1)N1Cc2cc(Nc3ccc(OCc4ccccc4)cc3)ccc2C1=O [Compound I-96, (R)-2-(5-((4-(benzyloxy)phenyl)amino)-1-oxoisoindolin-2-yl)-2-phenyl-N-(thiazol-2-yl)acetamide]	A (a % inhibition of about 75%)
O=C(Nc1nccs1)[C@@H](c1ccccc1)N1Cc2cc(Nc3cccc(F)c3)ccc2C1=O [Compound I-97, (R)-2-(5-((3-fluorophenyl)amino)-1-oxoisoindolin-2-yl)-2-phenyl-N-(thiazol-2-yl)acetamide]	A (a % inhibition of about 75%)
O=C(Nc1nccs1)[C@@H](c1ccccc1)N1Cc2ccc(Nc3ccccc3)cc2C1=O [Compound I-98, (R)-2-(1-oxo-6-(phenylamino)isoindolin-2-yl)-2-phenyl-N-(thiazol-2-yl)acetamide]	C (a % inhibition of between about 25% to about 50%)
O=C(Nc1nccs1)[C@@H](c1ccccc1)N1Cc2ccc(Nc3cccc(F)c3)cc2C1=O [Compound I-99, (R)-2-(6-((3-fluorophenyl)amino)-1-oxoisoindolin-2-yl)-2-phenyl-N-(thiazol-2-yl)acetamide]	C (a % inhibition of between about 25% to about 50%)
O=C(Nc1nccs1)[C@@H](c1ccccc1)N1Cc2ccc(Nc3cccc(CN4CCCC4)c3)cc2C1=O [Compound I-100, (R)-2-(1-oxo-6-((3-(pyrrolidin-1-ylmethyl)phenyl)amino)isoindolin-2-yl)-2-phenyl-N-(thiazol-2-yl)acetamide]	D (a % inhibition of between about 0% to about 25%)
O=C(Nc1nccs1)[C@@H](c1ccccc1)N1Cc2cc(-c3ccccc3F)ccc2C1=O [Compound I-101, (R)-2-(5-(2-fluorophenyl)-1-oxoisoindolin-2-yl)-2-phenyl-N-(thiazol-2-yl)acetamide]	B (a % inhibition of between about 50% to about 75%)
CN1CCN(c2ccc(-c3ccc4c(c3)CN([C@@H](C(=O)Nc3nccs3)c3ccccc3)C4=O)cc2)CC1 [Compound I-102, (R)-2-(5-(4-(4-methylpiperazin-1-yl)phenyl)-1-oxoisoindolin-2-yl)-2-phenyl-N-(thiazol-2-yl)acetamide]	B (a % inhibition of between about 50% to about 75%)
O=C(Nc1nccs1)[C@@H](c1ccccc1)N1Cc2cc(-c3ccc4c(c3)OCCO4)ccc2C1=O [Compound I-103, (R)-2-(5-(2,3-dihydrobenzo[b] [1,4]dioxin-6-yl)-1-oxoisoindolin-2-yl)-2-phenyl-N-(thiazol-2-yl)acetamide]	C (a % inhibition of between about 25% to about 50%)
O=C(Nc1nccs1)[C@@H](c1ccccc1)N1Cc2cc(-c3ccc4[nH]ccc4c3)ccc2C1=O [Compound I-104, (R)-2-(5-(1H-indol-5-yl)-1-oxoisoindolin-2-yl)-2-phenyl-N-(thiazol-2-yl)acetamide]	C (a % inhibition of between about 25% to about 50%)
O=C(Nc1nccs1)[C@@H](c1ccccc1)N1Cc2cc(-c3ccccc3)ccc2C1=O [Compound I-105, (R)-2-(1-oxo-5-phenylisoindolin-2-yl)-2-phenyl-N-(thiazol-2-yl)acetamide]	B (a % inhibition of between about 50% to about 75%)
COC(=O)c1cc(Br)ccc1N[C@@H](C(=O)Nc1nccs1)c1ccccc1 [Compound I-106, methyl (R)-5-bromo-2-((2-oxo-1-phenyl-2-(thiazol-2-ylamino)ethyl)amino)benzoate]	B (a % inhibition of between about 50% to about 75%)
COC(=O)c1cc(Br)ccc1N[C@H](C(=O)Nc1nccs1)c1ccccc1 [Compound I-107, methyl (S)-5-bromo-2-((2-oxo-1-phenyl-2-(thiazol-2-ylamino)ethyl)amino)benzoate]	B (a % inhibition of between about 50% to about 75%)
O=C(Nc1nccs1)[C@@H](c1ccccc1)N1Cc2ccc(-c3ccccn3)cc2C1=O [Compound I-108, (R)-2-(1-oxo-6-(pyridin-2-yl)isoindolin-2-yl)-2-phenyl-N-(thiazol-2-yl)acetamide]	C (a % inhibition of between about 25% to about 50%)
O=C(Nc1nccs1)[C@@H](c1cccc([N+](=O)[O-])c1)N1Cc2ccc(-c3ccc4[nH]ccc4c3)cc2C1=O [Compound I-109, (R)-2-(6-(1H-indol-5-yl)-1-oxoisoindolin-2-yl)-2-(3-nitrophenyl)-N-(thiazol-2-yl)acetamide]	B (a % inhibition of between about 50% to about 75%)
O=C(NCC(O)CO)c1cc(N[C@@H](C(=O)Nc2nccs2)c2ccccc2)ccc1[N+](=O)[O-] (stereo partly drawn) [Compound I-110, N-(2,3-dihydroxypropyl)-2-nitro-5-(((R)-2-oxo-1-phenyl-2-(thiazol-2-ylamino)ethyl)amino)benzamide]	A (a % inhibition of about 75%)

— patent US10385019B2, “Inhibitors of EGFR and methods of use thereof” (Dana-Farber Cancer Institute, Inc., priority 2015, dated 2019)
